Molecular target: T1, human TREM2 (Homo sapiens, UniProt Q9NZC2)
T1 construct: expressed in transfected cells; host or cells: HEK293T (HEK293T-hTREM2 cells)
Experiment: TREM2 agonist potency by cellular phosphorylation of Spleen Tyrosine Kinase (Syk), AlphaLisa, HEK293T-hTREM2 cells
Type: cell-based
Conditions: not given
Outline: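 HEK293T cells co-expressing human TREM2 and DAP12, plated 20–24 h before use. Compounds applied 45 min at room temperature in assay buffer, then cells lysed and phospho-Syk quantified by AlphaLisa. Percent activation from a standard curve; EC50 from a four-parameter variable-slope fit.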

T1 sequence (Q9NZC2 19-230): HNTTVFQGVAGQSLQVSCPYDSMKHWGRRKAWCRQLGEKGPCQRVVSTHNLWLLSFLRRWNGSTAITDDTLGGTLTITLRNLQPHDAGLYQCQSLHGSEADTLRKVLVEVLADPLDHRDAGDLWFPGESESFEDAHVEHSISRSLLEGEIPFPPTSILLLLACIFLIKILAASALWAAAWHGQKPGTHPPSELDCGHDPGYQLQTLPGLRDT
T1 sequence (O43914 22-113 partner): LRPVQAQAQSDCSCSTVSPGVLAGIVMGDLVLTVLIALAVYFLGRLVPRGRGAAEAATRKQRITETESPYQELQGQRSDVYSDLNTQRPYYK

SMILES	EC50
Cc1nc2cc(N3C[C@@H](C)O[C@@H](c4ccc(=O)n(C)c4)C3)nc(-c3ccc(F)cc3F)c2nc1C [Example 191, 5-((2S,6R)-4-(5-(2,4-difluorophenyl)-2,3-dimethylpyrido[3,4-b]pyrazin-7-yl)-6-methylmorpholin-2-yl)-1-methylpyridin-2 (1H)-one]	< 100 nM

Same assay, conditions: hTREM2 EC50 Data (HEK293 Cells); Syk phosphorylation, AlphaLisa; read-out: hTREM2 EC50

SMILES	EC50
Cc1nc2nc(N3C[C@@H](C)O[C@@H](c4ccc(=O)n(C5CC5)c4)C3)nc(C34CC(C(F)(F)F)(C3)C4)c2nc1C1COC1 [Example 183, 1-cyclopropyl-5-((2S,6R)-6-methyl-4-(7-methyl-6-(oxetan-3-yl)-4-(3-(trifluoromethyl)bicyclo[1.1.1]pentan-1-yl)pteridin-2-yl)morpholin-2-yl)pyridin-2(1H)-one]	< 100 nM
C[C@@H]1CN(c2nc(-c3ccc(F)cc3F)c3sc(N(C)C)nc3n2)C[C@H](c2ccc(=O)n(C)c2)O1 [Example 176, 5-[(2S,6R)-4-[7-(2,4-difluorophenyl)-2-(dimethylamino)thiazolo[4,5-d]pyrimidin-5-yl]-6-methyl-morpholin-2-yl]-1-methyl-pyridin-2-one]	< 100 nM
Cc1nc2nc(N3C[C@@H](C)O[C@@H](c4ccc(=O)n(C)c4)C3)nc(C34CC(C(F)(F)F)(C3)C4)c2nc1C [Example 62, 5-[(2S,6R)-4-[6,7-dimethyl-4-[3-(trifluoro-methyl)-1-bicyclo[1.1.1]pentanyl]pteridin-2-yl]-6-methyl-morpholin-2-yl]-1-methyl-pyridin-2-one]	< 100 nM
Cc1nc2nc([C@H]3CCO[C@@H](c4ccc(=O)n(C)c4)C3)nc(C34CC(C(F)(F)F)(C3)C4)c2nc1C [Example 25, 5-((2R,4S)-4-(6,7-dimethyl-4-(3-(trifluoromethyl)bicyclo[1.1.1]pentan-1-yl)pteridin-2-yl)tetrahydro-2H-pyran-2-yl)-1-methylpyridin-2(1H)-one]	< 100 nM
Cc1nc2nc([C@H]3CCO[C@@H](c4ccc(=O)n(C5COC5)c4)C3)nc(C34CC(C(F)(F)F)(C3)C4)c2nc1C [Example 107, 5-[(2R,4S)-4-[6,7-dimethyl-4-[3-(trifluoromethyl)-1-bicyclo[1.1.1]pentanyl]pteridin-2-yl]tetrahydropyran-2-yl]-1-(oxetan-3-yl)pyridin-2-one]	< 100 nM
Cc1nc2nc([C@@H]3CCO[C@H](c4ccc(=O)n(C(C)C)c4)C3)nc(-c3ccc(C(F)(F)F)cc3F)c2nc1C [Example 69, 1-isopropyl-5-[(2S,4R)-4-[4-[2-fluoro-4-(trifluoromethyl)-phenyl]-6,7-dimethyl-pteridin-2-yl]tetrahydropyran-2-yl]pyridin-2-one]	< 100 nM
C=CC(=O)Nn1cc([C@H]2C[C@@H](c3nc(C45CC(C(F)(F)F)(C4)C5)c4nc(C)c(C)nc4n3)CCO2)ccc1=O [Example 213, N-[5-[(2R,4S)-4-[6,7-dimethyl-4-[3-(trifluoromethyl)-1-bicyclo[1.1.1]pentanyl]pteridin-2-yl]tetrahydropyran-2-yl]-2-oxo-1-pyridyl]prop-2-enamide]	< 100 nM
Cc1nc2c(C34CC(C(F)(F)F)(C3)C4)nc([C@H]3CCO[C@@H](c4ccc(=O)n(C)c4)C3)nc2nc1C1CC1 [Example 155, 1-methyl-5-[(2R,4S)-4-[7-cyclopropyl-6-methyl-4-[3-(trifluoro-methyl)-1-bicyclo[1.1.1]pentanyl]-pteridin-2-yl]tetrahydropyran-2-yl]pyridin-2-one]	< 100 nM
Cc1nc2nc([C@H]3CCO[C@@H](c4ccc(=O)n(N5CC6C(C5)C6(F)F)c4)C3)nc(C34CC(C(F)(F)F)(C3)C4)c2nc1C (stereo partly drawn) [Example 215, 1-(6,6-difluoro-3-azabicyclo[3.1.0]hexan-3-yl)-5-[(2R,4S)-4-[6,7-dimethyl-4-[3-(trifluoromethyl)-1-bicyclo[1.1.1]pentanyl]pteridin-2-yl]tetrahydropyran-2-yl]pyridin-2-one]	< 100 nM
Cc1nc2nc([C@H]3CCO[C@@H](c4ccc(=O)n(-c5csc(C6CC6)c5)c4)C3)nc(C34CC(C(F)(F)F)(C3)C4)c2nc1C [Example 112]	< 100 nM
Cc1nc2c(C34CC(C(F)(F)F)(C3)C4)nc([C@H]3CCO[C@@H](c4ccc(=O)n(N)c4)C3)nc2c(=O)n1C (racemic) [Example 218, 2,3-dimethyl-6-[rac-(2R,4S)-2-(1-amino-6-oxo-3-pyridyl)tetrahydropyran-4-yl]-8-[3-(trifluoromethyl)-1-bicyclo[1.1.1]pentanyl]pyrimido[5,4-d]pyrimidin-4-one]	100 to 500 nM
Cc1cc2c(-c3ccc(F)cc3F)nc(N3C[C@@H](C)O[C@@H](c4ccc(=O)n(N)c4)C3)cc2nc1C [Example 193, 1-amino-5-[(2S,6R)-4-[5-(2,4-difluorophenyl)-2,3-dimethyl-1,6-naphthyridin-7-yl]-6-methyl-morpholin-2-yl]pyridin-2-one]	< 100 nM
[2H]C([2H])([2H])n1cc([C@H]2C[C@@H](c3nc(C45CC(C(F)(F)F)(C4)C5)c4nc(OC)c(C)nc4n3)CCO2)cc(C)c1=O [Example 149, 5-[(2R,4S)-4-[6-methoxy-7-methyl-4-[3-(trifluoromethyl)-1-bicyclo-[1.1.1]pentanyl]pteridin-2-yl]tetrahydropyran-2-yl]-3-methyl-1-(trideuteriomethyl)-pyridin-2-one]	< 100 nM
Cc1nc2nc(N3C[C@@H](C)O[C@@H](c4ccc(=O)n(C)c4)C3)nc(C34CC(C(N)=O)(C3)C4)c2nc1C [Example 204, 3-[6,7-dimethyl-2-[(2R,6S)-2-methyl-6-(1-methyl-6-oxo-3-pyridyl)morpholin-4-yl]pteridin-4-yl]bicyclo[1.1.1]pentane-1-carboxamide]	> 500 nM
CCNn1cc([C@H]2C[C@@H](c3nc(C45CC(C(F)(F)F)(C4)C5)c4nc(C)c(C)nc4n3)CCO2)ccc1=O [Example 181, 5-[(2R,4S)-4-[6,7-dimethyl-4-[3-(trifluoromethyl)-1-bicyclo[1.1.1]pentanyl]pteridin-2-yl]tetrahydropyran-2-yl]-1-(ethylamino)pyridin-2-one]	< 100 nM
Cc1nc2nc([C@H]3CCO[C@@H](c4ccc(=O)n(C56CC(C5)C6)c4)C3)nc(C34CC(C(F)(F)F)(C3)C4)c2nc1C [Example 120, 1-(1-bicyclo[1.1.1]pentanyl)-5-[(2R,4S)-4-[6,7-dimethyl-4-[3-(trifluoromethyl)-1-bicyclo-[1.1.1]pentanyl]pteridin-2-yl]tetrahydropyran-2-yl]pyridin-2-one]	< 100 nM
CN(C)c1nc2nc([C@@H]3CCO[C@H](c4ccc(=O)n(C)c4)C3)nc(-c3ccc(F)cc3F)c2s1 [Example 14, 5-[(2S,4R)-4-[7-(2,4-difluorophenyl)-2-(dimethylamino)thiazolo[4,5-d]pyrimidin-5-yl]tetrahydropyran-2-yl]-1-methyl-pyridin-2-one]	< 100 nM
CCCN(CCC)n1cc([C@H]2C[C@@H](c3nc(C45CC(C(F)(F)F)(C4)C5)c4nc(C)c(C)nc4n3)CCO2)ccc1=O [Example 211, 5-[(2R,4S)-4-[6,7-dimethyl-4-[3-(trifluoromethyl)-1-bicyclo[1.1.1]pentanyl]pteridin-2-yl]tetrahydropyran-2-y1]-1-(dipropylamino)pyridin-2-one]	< 100 nM
Cc1nc2nc([C@H]3CCO[C@@H](c4ccc(=O)n(C)c4)C3)nc(C34CCC(C(C)(F)F)(CC3)C4)c2nc1C [Example 60, 5-((2R,4S)-4-(4-(4-(1,1-difluoroethyl)bicyclo[2.2.1]heptan-1-yl)-6,7-dimethylpteridin-2-yl)tetrahydro-2H-pyran-2-yl)-1-methylpyridin-2(1H)-one]	< 100 nM
Cc1nc2nc(N3C[C@@H](C)O[C@@H](c4ccc(=O)n(C)c4)C3)nc(C34CC(C#N)(C3)C4)c2nc1C [Example 205, 3-[6,7-dimethyl-2-[(2R,6S)-2-methyl-6-(1-methyl-6-oxo-3-pyridyl)morpholin-4-yl]pteridin-4-yl]bicyclo[1.1.1]pentane-1-carbonitrile]	< 100 nM
Cc1nc2nc([C@H]3CCO[C@@H](c4ccc(=O)n(C5CC5)c4)C3)nc(-c3ccc(C(F)(F)F)cc3F)c2nc1C [Example 64, 1-cyclopropyl-5-[(2R,4S)-4-[4-[2-fluoro-4-(trifluoromethyl)phenyl]-6,7-dimethyl-pteridin-2-yl]tetrahydropyran-2-yl]pyridin-2-one]	< 100 nM
Cc1nc2nc([C@H]3CCO[C@@H](c4ccc(=O)n(C)c4)C3)nc(-c3ccc(C(F)(F)F)cc3F)c2nc1C [Example 4, 1-methyl-5-[(2R,4S)-4-[4-[2-fluoro-4-(trifluoro-methyl)phenyl]-6,7-dimethyl-pteridin-2-yl]tetrahydropyran-2-yl]pyridin-2-one]	< 100 nM
Cc1nc2nc([C@H]3CCO[C@@H](c4ccc(=O)[nH]c4)C3)nc(C34CC(C(F)(F)F)(C3)C4)c2cc1C(F)(F)F [Example 330, 5-((2R,4S)-4-(7-methyl-6-(trifluoromethyl)-4-(3-(trifluoromethyl)bicyclo[1.1.1]pentan-1-yl)pyrido[2,3-d]pyrimidin-2-yl)tetrahydro-2H-pyran-2-yl)pyridin-2(1H)-one]	< 100 nM
CN(C)c1nc2nc(C3CCOC(c4ccc(=O)n(C)c4)C3)nc(-c3ccc(F)cc3F)c2s1 (stereo not drawn) [Example 15]	< 100 nM
Cc1nc2nc([C@@H]3CCO[C@H](c4ccc(=O)n(C5CC5)c4)C3)nc(-c3ccc(C(F)(F)F)cc3F)c2nc1C [Example 65, 1-cyclopropyl-5-[(2S,4R)-4-[4-[2-fluoro-4-(trifluoromethyl)phenyl]-6,7-dimethyl-pteridin-2-yl]tetrahydropyran-2-yl]pyridin-2-one]	< 100 nM
Cc1nc2c(C34CC(C(F)(F)F)(C3)C4)nc([C@@H]3CCO[C@H](c4ccc(=O)n(C)c4)C3)nc2nc1C1CC1 [Example 156, 1-methyl-5-[(2S,4R)-4-[7-cyclopropyl-6-methyl-4-[3-(trifluoro-methyl)-1-bicyclo[1.1.1]pentanyl]pteridin-2-yl]tetrahydropyran-2-yl]pyridin-2-one]	< 100 nM
